Experimental findings from patent US20090092624A1, “Antiinfective Flavononol Compounds and Methods of Use Thereof” (priority 2007, published 2009) are described below.

The test system of assay [1] is Human influenza A virus subtype /PR/8/34 H1N1. Description: microbe, parasite or virus in culture. To be noted: MDCK. It counts as cell-based, Influenza A/PR/8/34 (H1N1).
Another assay concerns H1N1 virions. It counts as binding, Influenza A virus (H1N1).
For assay [2], the system named is Candida albicans (ATCC# 96133). Description: microbe, parasite or virus in culture. To be noted: ATCC96133, read-out: IC50 value, adhesion inhibition.
Assay [3] concerns Escherichea coli (ATCC# 53499). Description: microbe, parasite or virus in culture. The following applies: Escherichia coli, ATCC53499, read-out: IC50 value, adhesion inhibition.

pIC50: −log10 of the molar value. Several values for one entry are separate records, joined by “and”; a condition that tells them apart may be missing. Equal entries are not always repeated. Entries after “also recorded” stand apart in the source; their conditions may differ.

For orientation: IC50 means the point on the concentration scale where inhibition reaches its midpoint. High values mean weaker potency, low ones greater potency. Regarding `NC12CC3CC(CC(C3)C1)C2` [Amantadine], the IC50 in assay [1] is 4.7 µg/mL and 27 µM.
Still for that read-out and setting: as for `CCOC(=O)C1=C[C@@H](OC(CC)CC)[C@H](NC(C)=O)[C@@H](N)C1` [Oseltamivir], the figure is 0.1 µg/mL and 320 nM.
The term pIC50 denotes −log10 of the IC50, conventionally taken in molar units. In the case of `O=C1c2c(O)cc(O)cc2OC(c2cc(O)c(O)c(O)c2)C1O` (stereo not drawn) [Tristenonol aglycone, 3,5,7-Trihydroxy-2-(3,4,5-trihydroxyphenyl)-chroman-4-one], the “direct binding to H1N1 virus surface” value in the assay on H1N1 virions is “does bind directly to the virus surface; also recorded: bound to the H1N1 virus surface”. Also, the pIC50 is 4.05 in assay [2] and 4.22 in assay [3]. In addition, in assay [1], the IC50 was 2.8 µg/mL and 5.4 µM.
